Source: patent publication US11466044B2 (WAYNE STATE UNIVERSITY, priority 2017, dated 2022)
≈ marks a conversion by molar mass, not a printed value. Like-named read-outs stand apart in the source and are kept apart here.

How the values were obtained:
M. abscessus = experiment: MIC by broth microdilution, M. abscessus; type: cell-based
[1] = test system: wild type bacterial ribosomes; experiment: in-vitro translation assay, bacterial ribosomes; type: biochemical
Source text: (§1) The antiribosomal activity of these compounds was investigated with cell-free translation assays using both wild type bacterial ribosomes and hybrid ribosomes carrying eukaryotic decoding A sites enabling the prediction of selectivity.

[2] = test system: Acinetobacter baumannii pittii AG225; experiment: MIC by broth microdilution, Acinetobacter baumannii; type: cell-based; conditions: strain AG225 Acinetobacter baumannii pittii
P aeruginosa = experiment: MIC by broth microdilution, P aeruginosa isolates; type: cell-based, Pseudomonas aeruginosa
[3] = test system: Klebsiella pneumonia AG215; experiment: MIC by broth microdilution, Klebsiella pneumonia; type: cell-based; conditions: strain AG215 Klebsiella pneumonia
[4] = test system: rabbit reticulocyte ribosomes; experiment: in-vitro translation assay, rabbit reticulocyte ribosomes; type: biochemical; conditions: mammalian cytosolic ribosomes (rabbit)
[5] = test system: A1555G mutant mitochondrial ribosome (human chimeric); experiment: in-vitro translation assay, human chimeric ribosomes, A1555G mutant mitochondrial decoding site; type: biochemical; conditions: human mitochondrial decoding site with A1555G point mutation; read-out: IC50 Mitoch. A1555G
Source text: as §1

[6] = test system: E coli carrying specific resistance determinants; experiment: MIC by broth microdilution, E coli carrying specific resistance determinants; type: cell-based

NC[C@@H]1O[C@H](O[C@H]2[C@@H](O)[C@H](O[C@@H]3[C@@H](O)[C@H](N)C[C@H](N)[C@H]3O[C@H]3O[C@H](CN)[C@@H](O)[C@H](O)[C@H]3N)O[C@@H]2CO)[C@H](N)[C@@H](O)[C@@H]1O [neomycin, Neomycin B, reference compound]
MIC M. abscessus ATCC 19977 WT (M. abscessus; ATCC 19977 WT, Table 5 (Example 3)): 16 µg/mL (≈ 26 µM)
MIC M. abscessus ATCC (M. abscessus; ATCC, Table 4 (Example 3)): 16 µg/mL (≈ 26 µM)
MIC M. abscessus Clin. Isol. (M. abscessus; Clin. Isol., Table 4 (Example 3)): 16 µg/mL (≈ 26 µM)
MIC M. abscessus clinical isolate (M. abscessus; clinical isolate, Table 5 (Example 3)): 16 µg/mL (≈ 26 µM)
MIC M. abscessus engineered Δeis2 (M. abscessus; engineered Δeis2, Table 5 (Example 3)): 4 µg/mL (≈ 6.51 µM)
IC50 ([1]; Mycobacterium smegmatis ribosomes, read-out: IC50 Bacterial): 40 nM
IC50 ([1]; bacterial ribosome, Table 3 (Example 1), read-out: IC50 Bac): 40 nM
IC50 ([1]; bacterial ribosome, Table 3 (Example 2), read-out: IC50 Bac): 40 nM
IC50 ([1]; bacterial ribosome, Table 4 (Example 3), read-out: IC50 Bac): 40 nM
MIC AG225 A. baumannii [2]: 1 to 2 µg/mL
MIC AG031 P. aer. APH(3′)-II (P aeruginosa; clinical isolate AG031, APH(3′)-II): 8 µg/mL (≈ 13 µM)
MIC AG032 P. aer. APH(3′)-II (P aeruginosa; clinical isolate AG032, APH(3′)-II): 8 µg/mL (≈ 13 µM)
MIC50 P aeruginosa AG31 (P aeruginosa; strain AG31, Table 1 (Example 2)): 32 µg/mL (≈ 52.1 µM)
MIC50 P aeruginosa AG32 (P aeruginosa; strain AG32, Table 1 (Example 2)): 32 to 64 µg/mL
MIC50 P aeruginosa AG33 (P aeruginosa; strain AG33, Table 1 (Example 2)): >128 µg/mL
MIC50 P aeruginosa AG86 (P aeruginosa; strain AG86, Table 1 (Example 2)): >128 µg/mL
MIC AG220 P. aerugin (P aeruginosa; strain AG220 Pseudomonas aeruginosa ATCC27853): 32 µg/mL (≈ 52.1 µM)
MIC AG215 K. pneumon [3]: 0.5 µg/mL (≈ 0.813 µM)
IC50 [4]: 49000 nM
IC50 [5]: 400 nM
MIC E. coli AAC(2′) AG106 ([6]; AAC(2′) AG106, Table 4 (Example 3)): 8 µg/mL (≈ 13 µM)
MIC E. coli AAC(2′) pH434 ([6]; AAC(2′) pH434, Table 4 (Example 3)): >64 μg/mL
MIC AAC(6′) ([6]; AAC(6′), Table 3 (Example 2)): 4 µg/mL (≈ 6.51 µM)
MIC50 E coli AG07 AAC(3) ([6]; AG07 AAC(3), Table 2A (Example 2)): 4 µg/mL (≈ 6.51 µM)
MIC50 E coli AG09 AAC(6′) ([6]; AG09 AAC(6′), Table 2A (Example 2)): 8 µg/mL (≈ 13 µM)
MIC50 E coli AG036 ANT(4′,4″) ([6]; Table 2A (Example 2)): 32 µg/mL (≈ 52.1 µM)
MIC50 E coli AG036 ANT(4′,4″) ([6]; Table 2B (Example 2)): 4 to 8 µg/mL
MIC50 E coli AG037 APH(3′)-III ([6]; AG037 APH(3′)-III, Table 2B (Example 2)): >64 µg/mL
MIC50 E coli AG037 APH(3′,5″) ([6]; AG037 APH(3′,5″), Table 2A (Example 2)): >256 µg/mL
MIC50 E coli AG103 armA ([6]; AG103 ArmA, Table 2A (Example 2)): 0.5 µg/mL (≈ 0.813 µM)
MIC50 E coli AG103 armA ([6]; AG103 armA, Table 2B (Example 2)): 0.25 to 0.5 µg/mL
MIC50 E coli AG105 AAC(2′) ([6]; AG105 AAC(2′), Table 2A (Example 2)): 2 µg/mL (≈ 3.25 µM)
MIC E. coli AG106 AAC(2′)-Ia ([6]; AG106 AAC(2′)-Ia, Table 5 (Example 3)): 8 µg/mL (≈ 13 µM)
MIC E coli AG106 AAC(2′) ([6]; AG106 AAC(2′), Table 2 (Example 3)): 8 µg/mL (≈ 13 µM)
MIC ANT(4′) ([6]; ANT(4′), Table 3 (Example 2)): 4 to 8 µg/mL
MIC APH(3)-VI ([6]; APH(3)-VI, Table 3 (Example 1)): 32 to 64 µg/mL
MIC APH(3′)-I ([6]; APH(3′)-I, Table 3 (Example 1)): >64 µg/mL
MIC APH(3′)-II ([6]; Table 3 (Example 1)): 64 µg/mL (≈ 104 µM)
MIC APH(3′)-II ([6]; Table 3 (Example 2)): 64 µg/mL (≈ 104 µM)
MIC APH(3′)-III ([6]; APH(3′)-III, Table 3 (Example 1)): >64 µg/mL
MIC APH(3′)-VI ([6]; APH(3′)-VI, Table 3 (Example 2)): 32 to 64 µg/mL
MIC AG036 ANT(4′,4′′) ([6]; E. coli strain AG036, ANT(4′,4′′)): 4 to 8 µg/mL
MIC AG037 APH(3′)-III ([6]; E. coli strain AG037, APH(3′)-III): >64 µg/mL
MIC AG103 armA ([6]; E. coli strain AG103, armA): 0.25 to 0.5 µg/mL
MIC pH414 AAC(6′)-I ([6]; E. coli strain pH414, AAC(6′)-I): 2 μg/ml
MIC pH415 AAC(6′)-II ([6]; E. coli strain pH415, AAC(6′)-II): 4 μg/ml
MIC pH421 APH(3)-I ([6]; E. coli strain pH421, APH(3)-I): >128 μg/ml
MIC pH422 APH(3′)-II ([6]; E. coli strain pH422, APH(3′)-II): 64 μg/ml
MIC pH423 APH(3′)-VI ([6]; E. coli strain pH423, APH(3′)-VI): 32-64 μg/ml
MIC pH432 ANT(4′) ([6]; E. coli strain pH432, ANT(4′)): 1 μg/ml
MIC AG003 E. coli AAC(3)-II ([6]; clinical isolate AG003, AAC(3)-II): 1 µg/mL (≈ 1.63 µM)
MIC AG163 E. coli APH(3′)-I ([6]; clinical isolate AG163 APH(3′)-I, Table 2 (Example 4)): >64 µg/mL
MIC AG166 E. coli APH(3′)-II ([6]; clinical isolate AG166 APH(3′)-II, Table 2 (Example 4)): 64 µg/mL (≈ 104 µM)
MIC AG037 E. coli APH(3′)-III ([6]; engineered strain AG037 APH(3′)-III, Table 2 (Example 4)): >64 µg/mL
